These results are taken from US5489693A, “Cyclic imino derivatives, pharmaceutical compositions containing these compounds and processes preparing them” (priority 1992, dated 1996).

One data set has as its system platelet aggregation. Nature of the data set: Antithrombotic activity: inhibition of collagen-induced platelet aggregation (Born and Cross method). In kind it is cell-based. The conditions noted are these: Homo sapiens, 10 min, platelet-rich plasma from healthy volunteers, 10 minutes incubation at 37° C. Here is the method: 2. Antithrombotic activity Method The thrombocyte aggregation is measured using the Born and Cross method (J. Physiol. 170:397 (1964)) in platelet-rich plasma taken from healthy volunteers. To inhibit coagulation the blood is mixed with 3.14% sodium citrate in a volume ratio of 1:10. Collagen-induced aggregation The pattern of the decrease in optical density of the platelet suspension is photometrically measured and recorded after the addition of the aggregation-triggering substance. The rate of aggregation is determined from the angle of inclination of the density curve. The point on the curve where there is maximum light transmittance is used to calculate the optical density. The amount of collagen used is as small as possible but sufficient to produce an irreversible reaction curve. Standard commercial collagen produced by Hormonchemie of Munich is used. Before the addition of the collagen the plasma is incubated for 10 minutes with the substance at 37° C. From the measurements obtained an EC50 is determined graphically, indicating a 50% change in the optical density in terms of the inhibition of aggregation. The Table which follows contains the results found: […]

The target in the next data set is human thrombocytes. Description: Inhibition of binding of ^3 H-BIBU 52 to human thrombocytes (Fibrinogen-binding test). As to conditions: ^3 H-BIBU 52 5 nM, human platelet-rich plasma 1:10 diluted, ambient temperature, 20 minutes. Here is the method:
1. Inhibition of binding of ^3 H-BIBU 52 to human thrombocytes: […] Case 5/1093-FL) and various concentrations of the substance to be tested. The free and bound ligand is separated by centrifuging and quantitatively determined by scintillation counting. The inhibition of ^3 H-BIBU 52 binding by the test substance is determined from the measurements obtained. In order to do this, donor blood is taken from an anticubital vein and anticoagulated with trisodium citrate (final concentration 13 mM). The blood is centrifuged for 10 minutes at 170 x g and the supernatant platelet-rich plasma (PRP) is removed. The remaining blood is sharply centrifuged once more in order to obtain plasma. The PRP is diluted 1:10 with autologous plasma. 750 μl are incubated with 50 μl of physiological saline solution, 100 μl of test substance solution, 50 μl of ^14 C-sucrose (3,700 Bq) and 50 μl of ^3 H-BIBU 52 (final concentration: 5 nM) at ambient temperature for 20 minutes. In order to measure the non-specific binding, 5 μl of BIBU 52 (final concentration: 30 μM) are used instead of the test substance. The samples are centrifuged for 20 seconds at 10,000 x g and the supernatant is poured off. 100 μl thereof are measured in order to determine the free ligand. The pellet is dissolved in 500 μl of 0.2N NaOH, 450 μl are mixed with 2 ml of scintillator and 25 μl of 5N HCl and measured. The residual plasma remaining in the pellet is determined from the ^14 C-content and the bound ligand is determined from the ^3 H-measurement. After the non-specific binding has been deducted, the pellet activity is plotted against the concentration of the test substance and the concentration for a 50% inhibition of binding is determined.

In the next data set the test system is mice. Description: Tolerability after intravenous administration to mice. In kind it is in vivo. The conditions noted are these: intravenous administration of 15 mg/kg, 3 animals.

Counter-ions that a name gives are not always drawn.

For orientation: EC50 means the concentration giving half of the maximal effect. Read a high EC50 as a less potent agent. By IC50 is commonly meant the concentration that inhibits the measured activity by half. Read a low IC50 as higher potency.

For `N=C(N)c1ccc(N2CC(N3CCOCC3)=C(c3ccc(CCC(=O)O)cc3)C2=O)cc1` [2(3), 1-(4-amidinophenyl)-3-[4-(2-carboxy-ethyl)-phenyl]-4-morpholino-3-pyrrolin-2-one-hydrochloride], it took 730 nM to reach a half-maximal effect in the data set with platelet aggregation (EC50). The compound further yielded an IC50 at human thrombocytes of 42 nM.

For `N=C(N)c1ccc(N2CCC(c3ccc(CCC(=O)O)cc3)C2=O)cc1` (stereo not shown) [2(13), 1-(4-amidinophenyl)-3-[4-(2-carboxy-ethyl)-phenyl]-pyrrolidin-2-one-hydrochloride], the midpoint of the response in the data set on platelet aggregation, the EC50, lay at 260 nM. The same compound came in with an IC50 at human thrombocytes of 110 nM.

In the case of `COC1=C(c2ccc(CCC(=O)O)cc2)C(=O)N(c2ccc(CN)cc2)C1` [2(55), 1-(4-aminomethyl-phenyl)-3-[4-(2-carboxy-ethyl)phenyl]-4-methoxy-3-pyrrolin-2-one-hydrochloride], in the data set on platelet aggregation, the midpoint of the response, the EC50, lay at 330 nM. At human thrombocytes, this compound gave an IC50 of 180 nM.

In the case of `COC(=O)CCc1ccc(C2=C(OC)CN(c3ccc(CN)cc3)C2=O)cc1` [5(B), 1-(4-Aminomethyl-phenyl)-4-methoxy-3-[4-(2-methoxycarbonyl-ethyl)-phenyl]-3-pyrrolin-2-one], the EC50 in the data set on platelet aggregation turned out to be 380 nM. This compound also had an IC50 at human thrombocytes of 8600 nM.

In the case of `COC1=C(c2ccc(CCC(=O)O)cc2)C(=O)N(c2ccc(C(=N)N)cc2)C1` [Example 2, -(4-Amidinophenyl)-3-[4-(2-carboxyethyl)-phenyl]-4-methoxy-3-pyrrolin-2one-hydrochloride], the deaths result with mice is “none of the 3 animals tested died”. In addition, in the data set on platelet aggregation, a half-maximal effect (EC50) was put at 40 nM. The compound also had an IC50 on human thrombocytes of 11 nM.

As to `CC1(c2ccc(CCC(=O)O)cc2)C(=O)CN(c2ccc(C(=N)N)cc2)C1=O` (stereo not shown) [Example 13, 1-(4-Amidinophenyl)-3-[4-(2-carboxy-ethyl)-phenyl]-3-methyl-pyrrolidin-2,4-dione-hydrochloride], a half-maximal response in the data set with platelet aggregation (EC50) required 500 nM. The same compound gave an IC50 on human thrombocytes of 360 nM.
